Drawing on PubChem BioAssay AID624065 (The Scripps Research Institute Molecular Screening Center, 2012), this text covers IC50 for 16 compounds.

This assay has as its target Insulin-degrading enzyme (Homo sapiens) (UniProt P14735). Kind of assay: IDE insulin-degradation inhibitors, late-stage follow-up, counter-screen for IDE inhibitor project, biochemical, TR-FRET, recombinant IDE (AID 624065).

Active and inactive are the calls of the source. How the calls were made is not given here.

Sequence of Insulin-degrading enzyme (Homo sapiens) (P14735 whole entry, looked up): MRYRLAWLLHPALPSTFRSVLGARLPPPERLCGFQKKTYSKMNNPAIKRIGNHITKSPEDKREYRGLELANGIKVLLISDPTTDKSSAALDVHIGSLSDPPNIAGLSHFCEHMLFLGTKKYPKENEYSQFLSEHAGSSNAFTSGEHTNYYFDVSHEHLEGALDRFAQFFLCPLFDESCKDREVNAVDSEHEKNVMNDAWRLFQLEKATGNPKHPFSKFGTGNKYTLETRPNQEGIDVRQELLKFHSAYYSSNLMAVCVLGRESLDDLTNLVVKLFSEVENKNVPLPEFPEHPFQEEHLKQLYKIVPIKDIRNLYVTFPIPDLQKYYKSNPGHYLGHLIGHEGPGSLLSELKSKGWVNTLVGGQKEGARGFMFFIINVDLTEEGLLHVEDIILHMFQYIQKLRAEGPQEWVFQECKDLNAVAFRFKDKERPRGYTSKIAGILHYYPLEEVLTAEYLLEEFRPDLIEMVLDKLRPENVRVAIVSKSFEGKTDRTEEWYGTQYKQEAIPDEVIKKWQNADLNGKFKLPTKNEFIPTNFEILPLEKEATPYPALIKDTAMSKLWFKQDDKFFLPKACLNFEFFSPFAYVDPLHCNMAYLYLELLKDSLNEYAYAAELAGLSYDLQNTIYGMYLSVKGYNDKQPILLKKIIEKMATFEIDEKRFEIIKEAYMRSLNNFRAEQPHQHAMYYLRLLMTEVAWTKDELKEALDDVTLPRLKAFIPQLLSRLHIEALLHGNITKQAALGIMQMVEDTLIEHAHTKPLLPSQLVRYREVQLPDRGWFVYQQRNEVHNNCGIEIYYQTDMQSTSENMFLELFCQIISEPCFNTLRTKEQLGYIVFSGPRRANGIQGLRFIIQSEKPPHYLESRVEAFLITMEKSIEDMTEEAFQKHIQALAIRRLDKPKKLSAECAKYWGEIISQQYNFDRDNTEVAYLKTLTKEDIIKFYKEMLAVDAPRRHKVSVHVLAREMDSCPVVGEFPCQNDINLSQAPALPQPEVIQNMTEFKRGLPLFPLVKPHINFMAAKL

Regarding `Nc1c(C(=O)Nc2nccs2)sc2nc(-c3cccs3)cc(C(F)(F)F)c12`, the IC50 is > 10 µM (inactive).
Then `O=C(C1CC1)N1CCN(c2ccnc3cc(Cl)ccc23)CC1`, with > 10 µM (inactive); and `Cc1cccc(-c2nnc(SCc3nc4ccccc4[nH]3)n2Cc2ccco2)c1`, with > 10 µM (inactive).
In the case of `COc1cc(/C=C2\SC(=S)N(NC(C)=O)C2=O)ccc1OC(=O)c1ccco1` it was > 10 µM (inactive).
In the case of `O=C(Nc1cccc(C(F)(F)F)c1)c1csc(-c2ccncc2)n1` it was > 10 µM (inactive); in that of `O=C(Nc1ccc2oc(-c3cccnc3)nc2c1)c1ccc2c(c1)OCCO2`, > 10 µM (inactive).
Consider `COc1cccc(-c2nnc(SCc3nc4ccccc4[nH]3)n2Cc2ccco2)c1`, for which the IC50 is > 10 µM (inactive).
In the case of `Cc1c(CCC(=O)NCCCn2ccnc2)c(=O)oc2cc3oc4c(c3cc12)CCCC4` it was > 10 µM (inactive); in that of `O=c1c2ccccc2sn1-c1cc(S(=O)(=O)N2CCOCC2)ccc1N1CCOCC1`, 4 µM; in that of `CCOc1ccc2[nH]c3c(N4CCN(C(=O)c5ccco5)CC4)ncnc3c2c1`, > 10 µM (inactive).
In the case of `O=C(O)c1ccccc1NS(=O)(=O)c1cccc(-n2sc3ccccc3c2=O)c1` it was 4 µM; in that of `Cn1c(=O)c(C(=O)CN2CCCc3ccccc32)c(N)n(Cc2ccccc2)c1=O`, > 10 µM (inactive).
Then `COc1ccc(C(=O)N2CCN(C(=O)C3COc4ccccc4O3)CC2)cc1OC` (stereo unspecified), with 4.1 µM.
`Cc1ccc(C)c(N2C(=N)S/C(=C\c3ccc(-c4ccccc4C(=O)O)o3)C2=O)c1`: the IC50 is > 10 µM (inactive).
Then `CCN(CC)c1ccc(/C=C2\C(=N)N3N=C(CC(=O)N4CCOCC4)SC3=NC2=O)cc1`, with > 10 µM (inactive).
In the case of `Clc1cccc(-c2nnc(SCc3nc4ccccc4[nH]3)n2Cc2ccco2)c1` it was > 10 µM (inactive).

By IC50 is commonly meant the concentration that inhibits the measured activity by half.
